# Laboratory results from US8364409B2 (priority 2006, dated 2013).
# System: sensitive M bovis strain
# Format: cell-based, Mycobacterium bovis BCG
compound,measurement,value
"NNC(=O)c1ccncc1 [INH, isoniazid]",stress response (Impedance Response profile),varies with the drug concentration
